Assays:
wild oat [1] = test: Test Example 5: herbicidal effect by foliage application, plastic box (Table 20, symbol I); format: in vivo, wild oat (Avena fatua); conditions: foliage application, 320 g/ha
Procedure, shortened: (§1)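 Post-emergence foliar test in sterilized diluvial soil. Compound applied as water-diluted emulsion at a predetermined rate to 14-day-old plants; evaluation at three weeks.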

windgrass = test: Test Example 4: herbicidal effect by soil treatment (Table 19, symbol L); format: in vivo, windgrass (Apera spica-venti); conditions: 320 g/ha
Procedure, shortened: (§2)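 Scoring uses the grading scale of an earlier test, three weeks post-application. Treatment consists of spraying a diluted emulsion formulation across the surface of sterilized diluvial soil in which seeds are buried near 1.5 cm deep; boxes are kept in a greenhouse between 25° C. and 30° C.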

Italian ryegrass [2] = test: Test Example 4: herbicidal effect by soil treatment (Table 19, symbol K); format: in vivo, Italian ryegrass (Lolium multiflorum); conditions: 320 g/ha
Procedure, shortened: as §2

southern crabgrass = test: Test Example 4: herbicidal effect by soil treatment (Table 19, symbol F); format: in vivo, southern crabgrass (Digitaria ciliaris); conditions: 320 g/ha
Procedure, shortened: as §2

chickweed [3] = test: Test Example 4: herbicidal effect by soil treatment (Table 19, symbol P); format: in vivo, common chickweed (Stellaria media); conditions: 320 g/ha
Procedure, shortened: as §2

barnyard grass = test: Test Example 5: herbicidal effect by foliage application, plastic box (Table 20, symbol H); format: in vivo, barnyard grass (Echinochloa crus-galli); conditions: foliage application, 320 g/ha
Procedure, shortened: as §1

lambsquarters [4] = test: Test Example 5: herbicidal effect by foliage application, plastic box (Table 20, symbol O); format: in vivo, lambsquarters (Chenopodium album); conditions: foliage application, 320 g/ha
Procedure, shortened: as §1

wild oat [5] = test: Test Example 4: herbicidal effect by soil treatment (Table 19, symbol I); format: in vivo, wild oat (Avena fatua); conditions: 320 g/ha
Procedure, shortened: as §2

lambsquarters [6] = test: Test Example 4: herbicidal effect by soil treatment (Table 19, symbol O); format: in vivo, lambsquarters (Chenopodium album); conditions: 320 g/ha
Procedure, shortened: as §2

Italian ryegrass [7] = test: Test Example 5: herbicidal effect by foliage application, plastic box (Table 20, symbol K); format: in vivo, Italian ryegrass (Lolium multiflorum); conditions: foliage application, 320 g/ha
Procedure, shortened: as §1

Chinese sprangletop = test: Test Example 3: herbicidal effect by foliage application, Wagner pot (Table 18, symbol D); format: in vivo, chinese sprangletop (Leptochloa chinensis); conditions: 320 g/ha
Procedure, shortened: (§3)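 Plants were sown in alluvial soil held under 0.1–0.5 cm standing water and grown 14 days in a greenhouse at 25–30 °C. An emulsifiable formulation, water-diluted to the set dose, was then sprayed onto the foliage, and effects were scored three weeks later using previously defined criteria.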

late watergrass = test: Test Example 1: herbicidal activity, application before weed generation under submerged conditions (Table 16, symbol A); format: in vivo, late watergrass (Echinochloa oryzicola); conditions: 320 g/ha applied herbicide
Procedure, shortened: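 Emulsion formulation, water-diluted to set dose, was put onto the flooded surface (4 cm depth, alluvial soil) the same day weeds were sown and 2.5-leaf rice transplanted. After 3 weeks at 25-30 °C under glass, each species was rated 0 (≤5% kill) to 5 (≥90% kill).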

rice flat sedge = test: Test Example 3: herbicidal effect by foliage application, Wagner pot (Table 18, symbol E); format: in vivo, rice flat sedge (Cyperus iria); conditions: 320 g/ha
Procedure, shortened: as §3

redroot pigweed = test: Test Example 5: herbicidal effect by foliage application, plastic box (Table 20, symbol N); format: in vivo, redroot pigweed (Amaranthus retroflexus); conditions: foliage application, 320 g/ha, evaluated three weeks after application
Procedure, shortened: as §1

chickweed [8] = test: Test Example 5: herbicidal effect by foliage application, plastic box (Table 20, symbol P); format: in vivo, common chickweed (Stellaria media); conditions: foliage application, 320 g/ha, evaluated three weeks after application
Procedure, shortened: as §1

[9] = evaluated three weeks after application

SMILES: Cc1nn(C)c(=O)c(-c2c(-c3ccc(Cl)cc3)sc3ccc(F)cc23)c1O [Compound No. 2-010, 4-(2-(4-chlorophenyl)-5-fluorobenzo[b]thiophen-3-yl)-5-hydroxy-2,6-dimethylpyridazin-3(2H)-one]
- effect on wild oat (I) (wild oat [1]; 3 weeks after application): 4 (Herbicidal rate of 70% or more and less than 90%)
- herbicidal effect rating, L: windgrass (windgrass): 0 (Herbicidal rate of 5% or less (almost no effect))
- herbicidal effect rating, K: Italian ryegrass (Italian ryegrass [2]): 5 (Herbicidal rate of 90% or more (almost completely withered))
- herbicidal effect rating, F: southern crabgrass (southern crabgrass): 5 (Herbicidal rate of 90% or more (almost completely withered))
- herbicidal effect rating, P: chickweed (chickweed [3]): 4 (Herbicidal rate of 70% or more and less than 90%)
- effect on barnyard grass (H) (barnyard grass; 3 weeks after application): 5 (Herbicidal rate of 90% or more (almost completely withered))
- effect on lambsquarters (O) (lambsquarters [4]; 3 weeks after application): 5 (Herbicidal rate of 90% or more (almost completely withered))
- herbicidal effect rating, I: wild oat (wild oat [5]): 1 (Herbicidal rate of 5% or more and less than 20%)
- herbicidal effect rating, O: lambsquarters (lambsquarters [6]): 5 (Herbicidal rate of 90% or more (almost completely withered))
- effect on Italian ryegrass (K) (Italian ryegrass [7]; 3 weeks after application): 5 (Herbicidal rate of 90% or more (almost completely withered))
- herbicidal effect on D (Chinese sprangletop), rating 0-5 (Chinese sprangletop): 4 (Herbicidal rate of 70% or more and less than 90%)
- Herbicidal effect on A: late watergrass (grade 0-5) (late watergrass): 3 (Herbicidal rate of 40% or more and less than 70%)
- herbicidal effect on E (rice flat sedge), rating 0-5 (rice flat sedge): 5 (Herbicidal rate of 90% or more (almost completely withered))

SMILES: COc1cc(F)ccc1-c1sc2ccc(Cl)cc2c1-c1c(O)c(C)nn(C)c1=O [Compound No. 2-095, 4-(5-chloro-2-(4-fluoro-2-methoxyphenyl)benzo[b]thiophen-3-yl)-5-hydroxy-2,6-dimethylpyridazin-3(2H)-one]
- herbicidal effect on I: wild oat (wild oat [1]; [9]): 4 (Herbicidal rate of 70% or more and less than 90%)
- herbicidal effect rating, L: windgrass (windgrass): 3 (Herbicidal rate of 40% or more and less than 70%)
- herbicidal effect rating, K: Italian ryegrass (Italian ryegrass [2]): 0 (Herbicidal rate of 5% or less (almost no effect))
- herbicidal effect rating, F: southern crabgrass (southern crabgrass): 3 (Herbicidal rate of 40% or more and less than 70%)
- herbicidal effect rating, P: chickweed (chickweed [3]): 3 (Herbicidal rate of 40% or more and less than 70%)
- herbicidal effect on H: barnyard grass (barnyard grass; [9]): 4 (Herbicidal rate of 70% or more and less than 90%)
- herbicidal effect on O: lambsquarters (lambsquarters [4]; [9]): 5 (Herbicidal rate of 90% or more (almost completely withered))
- herbicidal effect on N: redroot pigweed (redroot pigweed): 5 (Herbicidal rate of 90% or more (almost completely withered))
- herbicidal effect rating, I: wild oat (wild oat [5]): 0 (Herbicidal rate of 5% or less (almost no effect))
- herbicidal effect rating, O: lambsquarters (lambsquarters [6]): 5 (Herbicidal rate of 90% or more (almost completely withered))
- herbicidal effect on K: Italian ryegrass (Italian ryegrass [7]; [9]): 3 (Herbicidal rate of 40% or more and less than 70%)
- herbicidal effect on P: chickweed (chickweed [8]): 5 (Herbicidal rate of 90% or more (almost completely withered))
- herbicidal effect on D (Chinese sprangletop), rating 0-5 (Chinese sprangletop): 4 (Herbicidal rate of 70% or more and less than 90%)
- Herbicidal effect on A: late watergrass (grade 0-5) (late watergrass): 2 (Herbicidal rate of 20% or more and less than 40%)
- herbicidal effect on E (rice flat sedge), rating 0-5 (rice flat sedge): 5 (Herbicidal rate of 90% or more (almost completely withered))
